From the supplement of paper PMC11424490

What was measured:
NCI-H2122 [1] = assay: combination cScore with adagrasib (Bliss gap around IC50) (%PoC); higher = stronger additive effect
Outline: (§1)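 The score averages the gap between expected and measured viability under Bliss independence, taken over a field around the IC50 of each single agent or, where an IC50 was not reached, at the highest concentrations. Viability came from CellTiter-Glo luminescence, normalised to vehicle wells as percent of control and fitted with four-parameter curves. NCI-H2122, NCI-H358 and SW837 cells were dosed in concentration matrices 24 h after seeding and grown for 72 h, or 144 h for SW837.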

NCI-H358 [2] = assay: as above
Outline: as §1

SW837 [3] = assay: as above
Outline: as §1

NCI-H2122 [4] = assay: combination cScore with sotorasib (Bliss gap around IC50) (%PoC); higher = stronger additive effect
Outline: as §1

NCI-H358 [5] = assay: as above
Outline: as §1

SW837 [6] = assay: as above
Outline: as §1

| SMILES | combination cScore with adagrasib (NCI-H2122 [1]) | combination cScore with adagrasib (NCI-H358 [2]) | combination cScore with adagrasib (SW837 [3]) | combination cScore with sotorasib (NCI-H2122 [4]) | combination cScore with sotorasib (NCI-H358 [5]) | combination cScore with sotorasib (SW837 [6]) |
| --- | --- | --- | --- | --- | --- | --- |
| CNS(=O)(=O)Nc1nccc(Cc2c(C)c3ccc(Oc4ncccn4)cc3oc2=O)c1F + C=C(F)C(=O)N1CCN(c2nc(OC[C@@H]3CCCN3C)nc3c2CCN(c2cccc4cccc(Cl)c24)C3)C[C@@H]1CC#N [adagrasib] | 9.73 | 3.4 | 3.07 |  |  |  |
| COc1ncc(-c2ccc3nccc(-c4ccnnc4)c3c2)cc1NS(=O)(=O)c1ccc(F)cc1F + C=C(F)C(=O)N1CCN(c2nc(OC[C@@H]3CCCN3C)nc3c2CCN(c2cccc4cccc(Cl)c24)C3)C[C@@H]1CC#N [adagrasib] | 23.1 | 5.98 | 4.03 |  |  |  |
| C[C@H](NC(=O)c1c(N)nn2cccnc12)c1cc2cccc(C#Cc3cnn(C)c3)c2c(=O)n1-c1ccccc1 [IPI-549] + C=CC(=O)N1CCN(c2nc(=O)n(-c3c(C)ccnc3C(C)C)c3nc(-c4c(O)cccc4F)c(F)cc23)[C@@H](C)C1 [sotorasib] |  |  |  | 15.1 | 2.47 | 4.45 |
| C=CC(=O)N1CCC[C@@H](n2nc(-c3ccc(Oc4ccccc4)cc3)c3c(N)ncnc32)C1 [Ibrutinib] + C=CC(=O)N1CCN(c2nc(=O)n(-c3c(C)ccnc3C(C)C)c3nc(-c4c(O)cccc4F)c(F)cc23)[C@@H](C)C1 [sotorasib] |  |  |  | 27.9 | 14.4 | 13.3 |
| CS(=O)(=O)CCNCc1ccc(-c2ccc3ncnc(Nc4ccc(OCc5cccc(F)c5)c(Cl)c4)c3c2)o1 [Lapatinib] + C=CC(=O)N1CCN(c2nc(=O)n(-c3c(C)ccnc3C(C)C)c3nc(-c4c(O)cccc4F)c(F)cc23)[C@@H](C)C1 [sotorasib] |  |  |  | 28.9 | 12.8 | 15.4 |
| Cc1c(CN2CCC(Nc3ncnc4sc(CC(F)(F)F)cc34)CC2)ccc2[nH]c(C#N)cc12 [MI-463] + C=CC(=O)N1CCN(c2nc(=O)n(-c3c(C)ccnc3C(C)C)c3nc(-c4c(O)cccc4F)c(F)cc23)[C@@H](C)C1 [sotorasib] |  |  |  | 10.2 | 2.97 | 12.3 |
| NC1(c2ccc(-c3nc4ccn5c(=O)[nH]nc5c4cc3-c3ccccc3)cc2)CCC1 [MK-2206] + C=CC(=O)N1CCN(c2nc(=O)n(-c3c(C)ccnc3C(C)C)c3nc(-c4c(O)cccc4F)c(F)cc23)[C@@H](C)C1 [sotorasib] |  |  |  | 15.5 | 1.28 | 18 |
| CC(C)n1nc(-c2ccc3oc(N)nc3c2)c2c(N)ncnc21 [MLN-0128] + C=CC(=O)N1CCN(c2nc(=O)n(-c3c(C)ccnc3C(C)C)c3nc(-c4c(O)cccc4F)c(F)cc23)[C@@H](C)C1 [sotorasib] |  |  |  | 6.3 | 10.3 | 15.9 |
| O=C1c2c(O)ccc(O)c2C(=O)c2c(NCCNCCO)ccc(NCCNCCO)c21 [Mitoxantrone] + C=CC(=O)N1CCN(c2nc(=O)n(-c3c(C)ccnc3C(C)C)c3nc(-c4c(O)cccc4F)c(F)cc23)[C@@H](C)C1 [sotorasib] |  |  |  | 11.3 | 1.3 | 7.33 |
| COc1cc(N2CCC(N3CCN(C)CC3)CC2)ccc1Nc1ncc(Cl)c(Nc2ccccc2S(=O)(=O)C(C)C)n1 [NVP-TAE684] + C=CC(=O)N1CCN(c2nc(=O)n(-c3c(C)ccnc3C(C)C)c3nc(-c4c(O)cccc4F)c(F)cc23)[C@@H](C)C1 [sotorasib] |  |  |  | 14.6 | 5.9 | 22.3 |
| O=C(c1cc(Cc2n[nH]c(=O)c3ccccc23)ccc1F)N1CCN(C(=O)C2CC2)CC1 [Olaparib] + C=CC(=O)N1CCN(c2nc(=O)n(-c3c(C)ccnc3C(C)C)c3nc(-c4c(O)cccc4F)c(F)cc23)[C@@H](C)C1 [sotorasib] |  |  |  | 6.94 | 1.2 | 8.33 |
| C=CC(=O)Nc1cc(Nc2nccc(-c3cn(C)c4ccccc34)n2)c(OC)cc1N(C)CCN(C)C [Osimertinib] + C=CC(=O)N1CCN(c2nc(=O)n(-c3c(C)ccnc3C(C)C)c3nc(-c4c(O)cccc4F)c(F)cc23)[C@@H](C)C1 [sotorasib] |  |  |  | 16.7 | 11.6 | 15.9 |
| O=C(/C=C/N1C[C@H]2C[C@@H]1CN2c1ccccn1)c1ccccc1O [PFI-3] + C=CC(=O)N1CCN(c2nc(=O)n(-c3c(C)ccnc3C(C)C)c3nc(-c4c(O)cccc4F)c(F)cc23)[C@@H](C)C1 [sotorasib] |  |  |  | 15.8 | 0.77 | -2.6 |
| O=C(c1c(F)ccc(NS(=O)(=O)N2CC[C@@H](F)C2)c1F)c1c[nH]c2ncc(-c3cnc(C4CC4)nc3)cc12 [PLX8394] + C=CC(=O)N1CCN(c2nc(=O)n(-c3c(C)ccnc3C(C)C)c3nc(-c4c(O)cccc4F)c(F)cc23)[C@@H](C)C1 [sotorasib] |  |  |  | 24.2 | 6.09 | 3.79 |
| CC(=O)c1c(C)c2cnc(Nc3ccc(N4CCNCC4)cn3)nc2n(C2CCCC2)c1=O [Palbociclib] + C=CC(=O)N1CCN(c2nc(=O)n(-c3c(C)ccnc3C(C)C)c3nc(-c4c(O)cccc4F)c(F)cc23)[C@@H](C)C1 [sotorasib] |  |  |  | 8.77 | 3.92 | 38.3 |
| Cc1ccc(C(=O)Nc2ccc(CN3CCN(C)CC3)c(C(F)(F)F)c2)cc1C#Cc1cnc2cccnn12 [Ponatinib] + C=CC(=O)N1CCN(c2nc(=O)n(-c3c(C)ccnc3C(C)C)c3nc(-c4c(O)cccc4F)c(F)cc23)[C@@H](C)C1 [sotorasib] |  |  |  | 19.1 | 0.16 | 1.65 |
| CCc1nc(N)nc(N)c1-c1ccc(Cl)cc1 [Pyrimethamine] + C=CC(=O)N1CCN(c2nc(=O)n(-c3c(C)ccnc3C(C)C)c3nc(-c4c(O)cccc4F)c(F)cc23)[C@@H](C)C1 [sotorasib] |  |  |  | 5.47 | -6.53 | -4.42 |
| CC1(N)CCN(c2cnc(-c3cccc(Cl)c3Cl)c(N)n2)CC1 [SHP099] + C=CC(=O)N1CCN(c2nc(=O)n(-c3c(C)ccnc3C(C)C)c3nc(-c4c(O)cccc4F)c(F)cc23)[C@@H](C)C1 [sotorasib] |  |  |  | 19.1 | 7.84 | 9.98 |
| CCc1c2c(nc3ccc(O)cc13)-c1cc3c(c(=O)n1C2)COC(=O)[C@]3(O)CC [SN-38] + C=CC(=O)N1CCN(c2nc(=O)n(-c3c(C)ccnc3C(C)C)c3nc(-c4c(O)cccc4F)c(F)cc23)[C@@H](C)C1 [sotorasib] |  |  |  | 11.8 | 2.64 | 2.7 |
| C[C@@H]1OCC2(CCN(c3cnc(Sc4ccnc(N)c4Cl)c(N)n3)CC2)[C@@H]1N [TNO155] + C=CC(=O)N1CCN(c2nc(=O)n(-c3c(C)ccnc3C(C)C)c3nc(-c4c(O)cccc4F)c(F)cc23)[C@@H](C)C1 [sotorasib] |  |  |  | 41.9 | 10.6 | 41.3 |
| CC/C(=C(\c1ccccc1)c1ccc(OCCN(C)C)cc1)c1ccccc1 [Tamoxifen] + C=CC(=O)N1CCN(c2nc(=O)n(-c3c(C)ccnc3C(C)C)c3nc(-c4c(O)cccc4F)c(F)cc23)[C@@H](C)C1 [sotorasib] |  |  |  | 11.1 | 2.01 | 0.835 |
| Cc1nc(-c2cn3c(n2)-c2ccc(-c4cnn(C(C)(C)C(N)=O)c4)cc2OCC3)n(C(C)C)n1 [Taselisib] + C=CC(=O)N1CCN(c2nc(=O)n(-c3c(C)ccnc3C(C)C)c3nc(-c4c(O)cccc4F)c(F)cc23)[C@@H](C)C1 [sotorasib] |  |  |  | 25.3 | 7.14 | 32.8 |
| COc1cc2/c(=N/c3ccc(Br)cc3F)nc[nH]c2cc1OCC1CCN(C)CC1 [Vandetanib] + C=CC(=O)N1CCN(c2nc(=O)n(-c3c(C)ccnc3C(C)C)c3nc(-c4c(O)cccc4F)c(F)cc23)[C@@H](C)C1 [sotorasib] |  |  |  | 28.4 | 7.76 | 22.6 |
| Oc1nc(-c2ccc(C(F)(F)F)cc2)nc2c1CSCC2 [XAV939] + C=CC(=O)N1CCN(c2nc(=O)n(-c3c(C)ccnc3C(C)C)c3nc(-c4c(O)cccc4F)c(F)cc23)[C@@H](C)C1 [sotorasib] |  |  |  | 14.2 | 7.36 | 7.47 |
| CCNC(=O)C[C@@H]1N=C(c2ccc(Cl)cc2)c2cc(OC)ccc2-n2c(C)nnc21 [iBET-762] + C=CC(=O)N1CCN(c2nc(=O)n(-c3c(C)ccnc3C(C)C)c3nc(-c4c(O)cccc4F)c(F)cc23)[C@@H](C)C1 [sotorasib] |  |  |  | 22.3 | 5.17 | 7.05 |
